Measured values published in patent US7135476B2, “Spiro tetrahydroquinazolines and dihydrocyclopentapyrimidines as CRF antagonists” (Roche Palo Alto LLC, priority 2003, dated 2006).

Molecular target: T1, CRF1 Receptor (Homo sapiens, UniProt P34998)
T1 construct: endogenous in cells; host or cells: IMR-32 human neuroblastoma cells (membrane preparation)
T1 sequence (P34998 24-415): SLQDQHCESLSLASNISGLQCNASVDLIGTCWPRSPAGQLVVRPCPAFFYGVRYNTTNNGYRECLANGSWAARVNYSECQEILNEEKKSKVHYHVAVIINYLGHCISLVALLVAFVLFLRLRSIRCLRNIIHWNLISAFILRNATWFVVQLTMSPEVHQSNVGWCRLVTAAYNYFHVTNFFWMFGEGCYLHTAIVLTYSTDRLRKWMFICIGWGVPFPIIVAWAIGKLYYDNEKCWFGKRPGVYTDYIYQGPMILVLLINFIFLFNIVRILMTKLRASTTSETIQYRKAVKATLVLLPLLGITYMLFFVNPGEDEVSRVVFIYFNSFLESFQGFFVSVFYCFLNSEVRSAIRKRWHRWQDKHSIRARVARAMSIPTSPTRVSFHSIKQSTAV
Assay: CRF1 Receptor Binding Assay
Settings: competition with [125I]Tyr0-ovine CRF, human IMR-32 neuroblastoma cell membranes; pKi derived from pIC50
Procedure: CRF1 Receptor Binding Assay
Human IMR-32 neuroblastoma cells are grown to 80% confluence in MEM medium containing 10% heat-inactivated FBS, 1 mM Sodium Pyruvate, and 0.1 mM nonessential amino acids. Cell membranes are prepared according the method of Dieterich and DeSouza (1996). The cells (˜5E+9) are resuspended in 10 volumes of wash buffer (5 mM Tris HCl, 10 mM MgCl2, 2 mM EGTA, pH 7.4 at RT), homogenized with a Polytron, and then centrifuged at 45,000 G for 20 min at 4° C. The membrane pellets are washed twice with wash buffer (45,000 G for 20 min at 4° C.) and then resuspended (50 mM Tris HCl, 10 mM MgCl2, 2 mM EGTA, pH 7.4 at RT). Protein concentration is determined using Pierce reagents and BSA as standard. […]
The competition binding assay is performed in a final volume of 250 μl, which contains assay buffer (50 mM Tris-HCl, 10 mM MgCl2, 2 mM EGTA, 0.2% BSA, 0.1 mM bacitracin and 100 kIU/mL aprotinin pH 7.2 at R.T.), 0.05 nM [^125I]Tyr^0-ovine CRF (Du Pont New England Nuclear), 50 μg of membrane protein, and test compound at various concentrations. Non-specific binding is determined with 1 uM hCRF. […] Unbound radioactivity is removed by four rapid washes (0.8 ml/well) with wash buffer. The radioactivity is quantified using a Packard TopCount. Data are analyzed using non-linear iterative curve fitting to obtain IC50 and Hill slope values. […]

Ki: 123 nM
Compound: CCCN(CC1CC1)c1nc(C)nc2c1CCCC21CCc2ccccc21 (stereo not shown) [Compound 1, (2,3,5′,6′,-Tetrahydro)-2′-methyl-4′-(N-propyl-N-cyclo-propylmethyl-amino)spiro[(1H)indene-1,8′-(7H)quina-zoline]]
